Laboratory results reported in ChEMBL document CHEMBL1770128, “Synthesis and antifungal activities of novel 5,6-dihydro-indolo[1,2-a]quinoxaline derivatives” (2011).

What was measured:
Format in all cases: functional
Pyricularia oryzae = assay: Antimicrobial activity against Pyricularia oryzae at 50 ug/ml after 5 days by poisoned food technique; conditions: 120 h
Alternaria alternata = assay: Antimicrobial activity against Alternaria alternata at 50 ug/ml […] by poisoned food technique; conditions: 120 h
Alternaria brassicae = assay: Antimicrobial activity against Alternaria brassicae at 50 ug/ml […] by poisoned food technique
Fusarium graminearum = assay: Antimicrobial activity against Fusarium graminearum at 50 ug/ml after 5 days by poisoned food technique; conditions: 120 h
[1] = system: Fusarium oxysporum f. sp. vasinfectum; assay: Antimicrobial activity against Fusarium oxysporum f. sp. vasinfectum at 50 ug/ml […] by poisoned food technique; conditions: 120 h

Q: Which inhibition at 50 µg/mL (Pyricularia oryzae) does the source give for `Cc1ccc2cc3n(c2c1)-c1ccccc1NC3c1ccc([N+](=O)[O-])cc1` (stereo not given) here?
A: 1.6%

Q: And the inhibition at 50 µg/mL (Alternaria alternata)?
A: 7.8%

Q: What about the inhibition at 50 µg/mL (Alternaria brassicae) of the same compound?
A: 13%

Q: And the inhibition at 50 µg/mL (Fusarium graminearum)?
A: 12.2%

Q: What about the inhibition at 50 µg/mL [1] of the same compound?
A: 11.7%

Q: For `Cc1ccc2cc3n(c2c1)-c1ccccc1NC3c1ccc(O)cc1` (stereo not given), which inhibition at 50 µg/mL (Pyricularia oryzae) is on record?
A: 43.7%

Q: What about the inhibition at 50 µg/mL (Alternaria alternata) of the same compound?
A: 56.3%

Q: And the inhibition at 50 µg/mL (Alternaria brassicae)?
A: 49%

Q: What about the inhibition at 50 µg/mL (Fusarium graminearum) of the same compound?
A: 41.2%

Q: And the inhibition at 50 µg/mL [1]?
A: 37.3%

Q: How did the inhibition at 50 µg/mL (Pyricularia oryzae) turn out when `COc1cc(C2Nc3ccccc3-n3c2cc2c(C)cccc23)ccc1O` (stereo not given) was run?
A: 16%

Q: And the inhibition at 50 µg/mL (Alternaria alternata)?
A: 17.9%

Q: What about the inhibition at 50 µg/mL (Alternaria brassicae) of the same compound?
A: 21%

Q: And the inhibition at 50 µg/mL (Fusarium graminearum)?
A: 12.3%

Q: What about the inhibition at 50 µg/mL [1] of the same compound?
A: 20.2%

Q: Which results are given for `O=[N+]([O-])c1ccc(C2Nc3ccccc3-n3c2cc2ccccc23)cc1` (stereo not given)?
A: inhibition at 50 µg/mL (Pyricularia oryzae): 5.8%; inhibition at 50 µg/mL (Alternaria alternata): 19.4%; inhibition at 50 µg/mL (Alternaria brassicae): 11.2%; inhibition at 50 µg/mL (Fusarium graminearum): 17.2%; inhibition at 50 µg/mL [1]: 9.2%

Q: With `Cc1cccc2c1cc1n2-c2ccccc2NC1c1ccccc1` (stereo not given) as the compound, how does the inhibition at 50 µg/mL (Pyricularia oryzae) read?
A: 22.1%

Q: What about the inhibition at 50 µg/mL (Alternaria alternata) of the same compound?
A: 29.2%

Q: What about the inhibition at 50 µg/mL (Alternaria brassicae) of the same compound?
A: 30.4%

Q: What about the inhibition at 50 µg/mL (Fusarium graminearum) of the same compound?
A: 32%

Q: And the inhibition at 50 µg/mL [1]?
A: 8.8%

Q: Which inhibition at 50 µg/mL (Pyricularia oryzae) does the source give for `Cc1cccc2c1cc1n2-c2ccccc2NC1c1ccc(N(C)C)cc1` (stereo not given) here?
A: 7.7%

Q: And the inhibition at 50 µg/mL (Alternaria alternata)?
A: 19.8%

Q: What about the inhibition at 50 µg/mL (Alternaria brassicae) of the same compound?
A: 10.4%

Q: What about the inhibition at 50 µg/mL (Fusarium graminearum) of the same compound?
A: 17.6%

Q: And the inhibition at 50 µg/mL [1]?
A: 6.9%

Q: For `Cc1cccc2c1cc1n2-c2ccccc2NC1(C)c1ccccc1` (stereo not given), which inhibition at 50 µg/mL (Pyricularia oryzae) is on record?
A: 34.6%

Q: What about the inhibition at 50 µg/mL (Alternaria alternata) of the same compound?
A: 32.7%

Q: And the inhibition at 50 µg/mL (Alternaria brassicae)?
A: 29.9%

Q: What about the inhibition at 50 µg/mL (Fusarium graminearum) of the same compound?
A: 43%

Q: What about the inhibition at 50 µg/mL [1] of the same compound?
A: 23.6%

Q: How did the inhibition at 50 µg/mL (Pyricularia oryzae) turn out when `Cc1cccc2c1cc1n2-c2ccccc2NC1c1ccccc1O` (stereo not given) was run?
A: 7.8%

Q: And the inhibition at 50 µg/mL (Alternaria alternata)?
A: 12%

Q: What about the inhibition at 50 µg/mL (Alternaria brassicae) of the same compound?
A: 55.8%

Q: And the inhibition at 50 µg/mL (Fusarium graminearum)?
A: 8.8%

Q: And the inhibition at 50 µg/mL [1]?
A: 11.7%

Q: How did the inhibition at 50 µg/mL (Pyricularia oryzae) turn out when `N#Cc1ccc2c(c1)cc1n2-c2ccccc2NC1c1ccc([N+](=O)[O-])cc1` (stereo not given) was run?
A: 62.8%

Q: What about the inhibition at 50 µg/mL (Alternaria alternata) of the same compound?
A: 64.6%

Q: What about the inhibition at 50 µg/mL (Alternaria brassicae) of the same compound?
A: 52.4%

Q: And the inhibition at 50 µg/mL (Fusarium graminearum)?
A: 56.3%

Q: What about the inhibition at 50 µg/mL [1] of the same compound?
A: 60.8%

Q: What does the source list for `Cc1c2n(c3ccccc13)-c1ccccc1NC2c1ccc(O)cc1` (stereo not given)?
A: inhibition at 50 µg/mL (Pyricularia oryzae): 46.5%; inhibition at 50 µg/mL (Alternaria alternata): 55.6%; inhibition at 50 µg/mL (Alternaria brassicae): 53%; inhibition at 50 µg/mL (Fusarium graminearum): 48%; inhibition at 50 µg/mL [1]: 44%

Q: Which results are given for `Oc1ccc(C2Nc3ccccc3-n3c2cc2ccccc23)cc1` (stereo not given)?
A: inhibition at 50 µg/mL (Pyricularia oryzae): 50.8%; inhibition at 50 µg/mL (Alternaria alternata): 58.3%; inhibition at 50 µg/mL (Alternaria brassicae): 31.4%; inhibition at 50 µg/mL (Fusarium graminearum): 52.1%; inhibition at 50 µg/mL [1]: 39.2%

Q: `Cc1c2n(c3ccccc13)-c1ccccc1NC2c1ccc([N+](=O)[O-])cc1` (stereo not given) was tested. Which inhibition at 50 µg/mL (Pyricularia oryzae) did it give?
A: 11.8%

Q: And the inhibition at 50 µg/mL (Alternaria alternata)?
A: 18.2%

Q: And the inhibition at 50 µg/mL (Alternaria brassicae)?
A: 13.3%

Q: What about the inhibition at 50 µg/mL (Fusarium graminearum) of the same compound?
A: 26.6%

Q: What about the inhibition at 50 µg/mL [1] of the same compound?
A: 11.4%

Q: Which results are given for `Cc1c2n(c3ccccc13)-c1ccccc1NC2c1ccco1` (stereo not given)?
A: inhibition at 50 µg/mL (Pyricularia oryzae): 33.4%; inhibition at 50 µg/mL (Alternaria alternata): 37.3%; inhibition at 50 µg/mL (Alternaria brassicae): 30.1%; inhibition at 50 µg/mL (Fusarium graminearum): 31.5%; inhibition at 50 µg/mL [1]: 17.8%

Q: Which results are given for `Cc1cc(O)no1` [HYMEXAZOL]?
A: inhibition at 50 µg/mL (Pyricularia oryzae): 53.5%; inhibition at 50 µg/mL (Alternaria alternata): 68.8%; inhibition at 50 µg/mL (Alternaria brassicae): 47.1%; inhibition at 50 µg/mL (Fusarium graminearum): 57%; inhibition at 50 µg/mL [1]: 62.7%

Q: How did the inhibition at 50 µg/mL (Pyricularia oryzae) turn out when `COc1cc(C2Nc3ccccc3-n3c2cc2ccccc23)ccc1O` (stereo not given) was run?
A: 4.4%

Q: What about the inhibition at 50 µg/mL (Alternaria alternata) of the same compound?
A: 9.2%

Q: What about the inhibition at 50 µg/mL (Alternaria brassicae) of the same compound?
A: 15.7%

Q: What about the inhibition at 50 µg/mL (Fusarium graminearum) of the same compound?
A: 15.7%

Q: What about the inhibition at 50 µg/mL [1] of the same compound?
A: 11%

Q: `Cc1cccc2c1cc1n2-c2ccccc2NC1c1ccc([N+](=O)[O-])cc1` (stereo not given) was tested. Which inhibition at 50 µg/mL (Pyricularia oryzae) did it give?
A: 10.1%

Q: What about the inhibition at 50 µg/mL (Alternaria alternata) of the same compound?
A: 17.7%

Q: And the inhibition at 50 µg/mL (Alternaria brassicae)?
A: 10.4%

Q: What about the inhibition at 50 µg/mL (Fusarium graminearum) of the same compound?
A: 24.6%

Q: What about the inhibition at 50 µg/mL [1] of the same compound?
A: 5.3%

Q: How did the inhibition at 50 µg/mL (Pyricularia oryzae) turn out when `COc1ccc(C2Nc3ccccc3-n3c2cc2c(C)cccc23)cc1` (stereo not given) was run?
A: 15.1%

Q: What about the inhibition at 50 µg/mL (Alternaria alternata) of the same compound?
A: 14.9%

Q: And the inhibition at 50 µg/mL (Alternaria brassicae)?
A: 7.2%

Q: What about the inhibition at 50 µg/mL (Fusarium graminearum) of the same compound?
A: 12.2%

Q: What about the inhibition at 50 µg/mL [1] of the same compound?
A: 9.7%

Q: With `Cc1cccc2c1cc1n2-c2ccccc2NC1c1ccc(O)cc1` (stereo not given) as the compound, how does the inhibition at 50 µg/mL (Pyricularia oryzae) read?
A: 50.8%

Q: What about the inhibition at 50 µg/mL (Alternaria alternata) of the same compound?
A: 72.9%

Q: What about the inhibition at 50 µg/mL (Alternaria brassicae) of the same compound?
A: 55.9%

Q: And the inhibition at 50 µg/mL (Fusarium graminearum)?
A: 51.3%

Q: What about the inhibition at 50 µg/mL [1] of the same compound?
A: 41.2%
